Consider one substance from patent publication US7282348B2, “Kit for measuring cytotoxicity of a test agent” (Promega Corporation, priority 2002, dated 2007).

The assay concerns L929 cells. Put plainly: Cytotoxicity of TNFα measured by LDH release (resazurin/diaphorase fluorescence). Type of assay: cell-based, mouse. Particulars: 20 hours incubation, in the presence of actinomycin D 1 μg/ml. As to the method:
A reagent solution was prepared combining a lyophilized substrate mixture with the assay buffer containing resazurin, and all of the ingredients required to measure the release of LDH from dead cells. The buffer solvent used to reconstitute the lyophilized substrate mixture was designed so that when it is used to reconstitute the mixture, the resulting solution has an osmolarity that is compatible with living cells. That is, the resulting solution was isotonic with the cells. When used to reconstitute the lyophilized substrate mix, the reagent solution contained:
L929 cells were cultured in F-12/DME with 10% FBS and serially-diluted in a microtiter plate to yield duplicate wells containing approximately 0, 1562, 3125, 6250, 12,500, 25,000, and 50,000 cells per well, in 90 μl total volume. Cells were incubated at 37° C. for sufficient time to allow attachment (about 1.5 hours). […] The fluorescence of each well was then measured (excitation 560 nm, emission 590 nm).
L929 cells (2000 cells/well) were prepared using a 384-well tissue culture plate in F-12/DME medium supplemented with 10% horse serum. […] Fluorescence was then determined at 560 nm excitation and 590 nm emission.

TNFα: the “concentration at or above which fluorescence remained essentially constant (all of the cells lysed)” value is recorded as “about 0.125 ng/ml”. Further, the “observed fluorescence (560 nm excitation, 590 nm emission) as a measure of cell lysis” value (TNF concentrations from zero to about 0.125 ng/ml) is “rose in a TNFα dose-dependent fashion”.
